“And” between values parts separate entries of the source, which are not always exact repeats. Equal entries are not always repeated. “Also recorded” adds a separate entry of the source.
How the values were obtained:
[1] = test system: HEK293T Tau RD P301S FRET biosensor (tau biosensor) cells; test: EV-mediated tau seed transfer (EMT) assay; assay type: cell-based; settings: 20 μM
[2] = Parallel artificial membrane permeability (IAM column) prediction of CNS permeability; assay type: in vitro ADME; settings: PAMPA, 2 mM
Procedure: To predict the potential for brain permeability, a Regis Technologies analytical column connected to an Agilent HPLC system (Infinity 1260 quaternary pump and multiple wavelength detector; 1200 autosampler) was used. An IAM.PC.DD column was (4.6 mm i.d.×10 cm, particle size 5 μm; pore size 300 Å) conditioned with 20 column volumes of mobile phase or until a stable line was achieved. A mobile phase with a consistent flow rate of 1 mL/min was used comprising 100 mM Na2PO4 (solvent A) and acetonitrile (solvent B); compounds were eluted using a gradient (min/% B: 0/30, 10/60, 11/30, 15/30). Detector settings were 220, 250 and 280 nm and acquisition time was 15 min. The autosampler injected 10 μL of compound at 2 mM final, diluted from 10 mM in DMSO in 70:30 (water:acetonitrile). After elution, compound retention and void volume times were obtained from the chromatogram. The IAM capacity factor: (KIAM) was calculated using the equation: […]
where tr is the retention time of a compound and t0 is the void volume time of the column. To predict CNS permeability, we used the correlation described by the formula below.

[3] = test system: donor cells (tau biosensor cells); test: Donor cell number and viability in EMT assay; assay type: cell-based; settings: 48 hours after sub-culture, 20 μM, vs DMSO
Procedure: HEK293T Tau RD P301S FRET biosensor (tau biosensor) cells were grown in Dulbecco's Modified Eagle's medium (DMEM) with high glucose, 10% FBS, and 1% Penicillin-streptomycin at 37° C./5% CO2. The lead inhibitors were tested in functional tau propagation “D+R” (Donors plus Recipients) and EMT (EV-mediated transfer) assays using the tau biosensors. Briefly, tau aggregation in donor cells (D) was induced by transfection of tau biosensor cells with human AD brain derived synaptosomal extracts (35 μg of synaptosomal fraction for 5 million cells in one 10 cm dish); control cells were treated with corresponding amount of transfection reagent lipofectamine 2000. After 24 hr incubation, the cells were trypsinized and plated together with DID-labeled recipient cells (R) in a 1:1 ratio in 96-well plates (15,000 of each cell type per well) for D+R assay or 1.5 million of donor cells per well in 6-well plates for EMT assay. Tested compounds or a corresponding amount of DMSO (0.2%) was added to the cell culture medium, DMEM, which contained 10% of exosome-depleted FBS (ThermoFisher, A2720803). […] Tau seed transfer from donor to recipient cells results in FRET signal generation in the DID-positive recipient cells, which was measured by flow cytometry. Integrated FRET density was calculated in the top 30% of DID-positive cell based on DID signal intensity.

[4] = Brain pharmacokinetic analysis after SQ dosing
Procedure: Pharmacokinetic (PK) analysis on the leads 8 and 11 to determine brain permeability using wild type mice was performed. The compounds were subcutaneously (SQ) injected at a dose of 20 mg per kg of body weight (mpk). Brain and plasma samples were collected 1, 2, and 4 hours after dosing.

[5] = biological target: human serum albumin (HSA) (Homo sapiens, UniProt P02768); test: Binding to human serum albumin (HSA)
[6] = test system: Tau P301S (PS19 line) tauopathy mouse model; test: Rapid in vivo assay: IL1β-induced brain EV release; parameters: species or system mice
[7] = test system: HEK293T Tau RD P301S FRET biosensor (tau biosensor) cells; test: Donor plus Recipient (D+R) tau propagation assay; assay type: cell-based; settings: 20 μM
Procedure: HEK293T Tau RD P301S FRET biosensor (tau biosensor) cells were grown in Dulbecco's Modified Eagle's medium (DMEM) with high glucose, 10% FBS, and 1% Penicillin-streptomycin at 37° C./5% CO2. The lead inhibitors were tested in functional tau propagation “D+R” (Donors plus Recipients) and EMT (EV-mediated transfer) assays using the tau biosensors. Briefly, tau aggregation in donor cells (D) was induced by transfection of tau biosensor cells with human AD brain derived synaptosomal extracts (35 μg of synaptosomal fraction for 5 million cells in one 10 cm dish); control cells were treated with corresponding amount of transfection reagent lipofectamine 2000. After 24 hr incubation, the cells were trypsinized and plated together with DID-labeled recipient cells (R) in a 1:1 ratio in 96-well plates (15,000 of each cell type per well) for D+R assay or 1.5 million of donor cells per well in 6-well plates for EMT assay. Tested compounds or a corresponding amount of DMSO (0.2%) was added to the cell culture medium, DMEM, which contained 10% of exosome-depleted FBS (ThermoFisher, A2720803). Four technical replicates were used for each experimental condition. The inhibitors were tested at 20 μM concentration. […] Tau seed transfer from donor to recipient cells results in FRET signal generation in the DID-positive recipient cells, which was measured by flow cytometry. Integrated FRET density was calculated in the top 30% of DID-positive cell based on DID signal intensity.
(§1) An Attune NxT Flow Cytometer (Invitrogen) equipped with an autosampler and FRET-compatible laser lines and filter sets was used for FRET signal detection. The FRET (CFP/YFP) signal was excited by a 405 nm laser for CFP excitation and detected in the YFP image detection channel. Flow cytometry data was analyzed using FCS Express version 5 software (DeNovo Software California, USA). Integrated FRET density was calculated as a product of percentage FRET positive cells and median of fluorescent intensity of the FRET positive cells as previously established.

[8] = test system: HEK293T Tau RD P301S FRET biosensor (tau biosensor) cells; test: EV-mediated tau seed transfer (EMT) assay; assay type: cell-based; settings: 20 μM; remark: listed apart in the source
Procedure: HEK293T Tau RD P301S FRET biosensor (tau biosensor) cells were grown in Dulbecco's Modified Eagle's medium (DMEM) with high glucose, 10% FBS, and 1% Penicillin-streptomycin at 37° C./5% CO2. The lead inhibitors were tested in functional tau propagation “D+R” (Donors plus Recipients) and EMT (EV-mediated transfer) assays using the tau biosensors. Briefly, tau aggregation in donor cells (D) was induced by transfection of tau biosensor cells with human AD brain derived synaptosomal extracts (35 μg of synaptosomal fraction for 5 million cells in one 10 cm dish); control cells were treated with corresponding amount of transfection reagent lipofectamine 2000. After 24 hr incubation, the cells were trypsinized and plated together with DID-labeled recipient cells (R) in a 1:1 ratio in 96-well plates (15,000 of each cell type per well) for D+R assay or 1.5 million of donor cells per well in 6-well plates for EMT assay. Tested compounds or a corresponding amount of DMSO (0.2%) was added to the cell culture medium, DMEM, which contained 10% of exosome-depleted FBS (ThermoFisher, A2720803). Four technical replicates were used for each experimental condition. The inhibitors were tested at 20 μM concentration. In 48 hours 50 μL of culture medium per well were collected for cell viability test (Cytotox 96 non-radioactive cytotoxicity assay, Promega Corp., Madison, Wis.). The cells in D+R assay were harvested at the 48 hr time point and fixed with 2% paraformaldehyde for flow cytometry analysis according to published protocol. Tau seed transfer from donor to recipient cells results in FRET signal generation in the DID-positive recipient cells, which was measured by flow cytometry. Integrated FRET density was calculated in the top 30% of DID-positive cell based on DID signal intensity.
For the EMT assay, cell culture medium from donor cells growing for 48 hours with the compounds at concentrations of 20 μM or a corresponding amount of DMSO (0.2%), was collected and EVs were purified using the ExoQuick-TC kit (SBI biosciences) according to the manufacturer's instructions. Naïve recipient cells were plated in 96 well plates at a density of 20,000 cells per well in exosome-free medium and transfected with donor cell-derived exosomes at 12 hrs. The recipient cells were harvested 60 hours after transfection and FRET signals were analyzed using flow cytometry.
as §1, with “The FRET (CFP/YFP) signal was excited by a 405 nm laser for CFP excitation and detected in the YFP image detection channel.” left out

Human AChE = biological target: T1, Human AChE (Homo sapiens, UniProt P22303); test: biochemical; settings: read-out: AChE IC50
T1 construct: purchased Sigma
Procedure: This acetylcholinesterase (AChE) assay is based on an Amplex Red assay kit (Thermo Fisher A12217). Human AChE (Sigma) was used. Briefly, 5 μL of compounds at the desired concentration were loaded into wells of a 384-well plate. Then, 5 μl of human AChE (30 mU/mL) was loaded into each well, followed by the addition of 10 μL of the working solution which contains 400 μM Amplex Red reagent, 2 U/mL HRP, 0.2 U/mL choline oxidase, and 100 μM acetylcholine. The reaction was monitored for 60 minutes and read at 530/590 nm. AChE IC50 was determined by plotting AChE activity as a percentage of DMSO control using GraphPad Prism software.

Chain of human serum albumin (HSA) (P02768 25-609): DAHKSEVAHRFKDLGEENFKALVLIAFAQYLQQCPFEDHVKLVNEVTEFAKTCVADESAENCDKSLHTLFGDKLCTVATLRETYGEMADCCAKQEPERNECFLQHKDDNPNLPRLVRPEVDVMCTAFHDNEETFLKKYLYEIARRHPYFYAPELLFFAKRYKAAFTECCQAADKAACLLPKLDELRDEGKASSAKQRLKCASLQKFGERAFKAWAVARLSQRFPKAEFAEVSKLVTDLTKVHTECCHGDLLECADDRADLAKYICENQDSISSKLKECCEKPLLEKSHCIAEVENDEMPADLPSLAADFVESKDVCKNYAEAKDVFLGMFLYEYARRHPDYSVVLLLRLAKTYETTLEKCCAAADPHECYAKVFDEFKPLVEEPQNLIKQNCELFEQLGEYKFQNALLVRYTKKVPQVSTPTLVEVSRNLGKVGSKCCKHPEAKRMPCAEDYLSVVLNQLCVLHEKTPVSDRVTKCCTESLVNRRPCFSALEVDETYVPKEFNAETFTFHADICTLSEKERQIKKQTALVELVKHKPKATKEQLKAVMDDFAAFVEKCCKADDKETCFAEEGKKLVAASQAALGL
T1 sequence (P22303 32-614): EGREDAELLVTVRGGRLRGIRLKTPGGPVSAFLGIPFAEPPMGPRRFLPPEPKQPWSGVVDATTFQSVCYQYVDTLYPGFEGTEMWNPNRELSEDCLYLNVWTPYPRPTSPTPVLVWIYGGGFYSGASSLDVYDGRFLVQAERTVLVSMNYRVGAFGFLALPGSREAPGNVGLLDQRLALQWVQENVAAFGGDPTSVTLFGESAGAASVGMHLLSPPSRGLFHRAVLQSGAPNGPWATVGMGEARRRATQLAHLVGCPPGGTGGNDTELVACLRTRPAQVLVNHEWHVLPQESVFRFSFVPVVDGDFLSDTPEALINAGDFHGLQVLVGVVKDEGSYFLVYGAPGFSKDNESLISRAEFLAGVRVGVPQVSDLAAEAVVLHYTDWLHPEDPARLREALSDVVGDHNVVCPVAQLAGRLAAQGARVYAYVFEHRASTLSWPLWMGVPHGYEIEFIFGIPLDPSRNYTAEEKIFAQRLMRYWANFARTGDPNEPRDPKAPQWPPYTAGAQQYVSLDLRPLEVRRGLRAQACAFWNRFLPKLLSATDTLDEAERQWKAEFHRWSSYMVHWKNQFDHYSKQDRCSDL

SMILES: CN1c2ccc(OC(=O)Nc3cccnc3)cc2[C@]2(C)CCO[C@H]12 [Compound 11]
- EV size distribution of donor-derived EVs (TRPS) [1]: did not affect
- concentrations of exosomal-type small EVs from donor cells [1]: decreased
- levels of exosomal markers CD63, CD81, and syntenin-1 in donor EVs ([1]; vs DMSO control): reduced
- CNS perm (PAMPA) [2]: 1.8
- donor cell numbers or survival [3]: didn't affect
- brain penetration (compound levels in brain tissue, LC-MS/MS) ([4]; mice, 20 mg/kg SQ): penetrated the brain
- concentration at 1 h ([4]; mouse, in vivo, 20 mg/kg): 262 ng/g and ~800 nM
- time of peak brain levels after SQ dosing ([4]; wild type mice, 20 mg/kg SQ): around one
- degree of binding to human serum albumin (HSA) [5]: low degree of binding
- fraction unbound ([5]; human, human serum albumin): 0.31
- IL1β-induced tau release by exosomes ([6]; 20 mg/kg SQ): significantly reduced
- difference in CD11b levels (microglia-derived exosomes) vs IL1β group ([6]; 20 mg/kg SQ): not significant
- exosome-associated BIN1 upon IL1β stimulation ([6]; 20 mg/kg SQ): lower
- level of astrocyte-derived exosomes (GLAST) ([6]; 20 mg/kg SQ, vs IL1β group): significantly reduced
- exosomal marker CD63 in exosome-enriched F2 fractions ([6]; 20 mg/kg SQ, vs IL1β only group): significant reduction
- IL1β-induced brain EV / exosomal release (small EV concentration, TRPS) ([6]; mouse, in vivo, 20 mg/kg): diminished IL1β-induced brain EV release; also recorded: suppressed IL1β-induced exosomal release to the control level
- decrease of FRET fluorescence density from DMSO-control, D+R assay [7]: 19.5%
- tau seed transfer from donor to recipient cells, D+R assay ([7]; 48 hrs): suppress tau propagation; also recorded: significantly suppresses
- decrease of FRET fluorescence density from DMSO-control, EMT assay [8]: 41.3%
- tau seed transfer from donor to recipient cells, EMT assay ([8]; donor cells 48 hrs): suppress tau propagation; also recorded: significantly suppresses
- IC50 (Human AChE): 1700 nM
